Assays:
[1] = biological target: T1, FL-USP15 (Homo sapiens, UniProt Q9Y4E8); experiment: linear diubiquitin gel shift cleavage assay (SDS-PAGE, ImageJ); assay type: biochemical
T1 sequence (Q9Y4E8 2-952 isoform Q9Y4E8-2): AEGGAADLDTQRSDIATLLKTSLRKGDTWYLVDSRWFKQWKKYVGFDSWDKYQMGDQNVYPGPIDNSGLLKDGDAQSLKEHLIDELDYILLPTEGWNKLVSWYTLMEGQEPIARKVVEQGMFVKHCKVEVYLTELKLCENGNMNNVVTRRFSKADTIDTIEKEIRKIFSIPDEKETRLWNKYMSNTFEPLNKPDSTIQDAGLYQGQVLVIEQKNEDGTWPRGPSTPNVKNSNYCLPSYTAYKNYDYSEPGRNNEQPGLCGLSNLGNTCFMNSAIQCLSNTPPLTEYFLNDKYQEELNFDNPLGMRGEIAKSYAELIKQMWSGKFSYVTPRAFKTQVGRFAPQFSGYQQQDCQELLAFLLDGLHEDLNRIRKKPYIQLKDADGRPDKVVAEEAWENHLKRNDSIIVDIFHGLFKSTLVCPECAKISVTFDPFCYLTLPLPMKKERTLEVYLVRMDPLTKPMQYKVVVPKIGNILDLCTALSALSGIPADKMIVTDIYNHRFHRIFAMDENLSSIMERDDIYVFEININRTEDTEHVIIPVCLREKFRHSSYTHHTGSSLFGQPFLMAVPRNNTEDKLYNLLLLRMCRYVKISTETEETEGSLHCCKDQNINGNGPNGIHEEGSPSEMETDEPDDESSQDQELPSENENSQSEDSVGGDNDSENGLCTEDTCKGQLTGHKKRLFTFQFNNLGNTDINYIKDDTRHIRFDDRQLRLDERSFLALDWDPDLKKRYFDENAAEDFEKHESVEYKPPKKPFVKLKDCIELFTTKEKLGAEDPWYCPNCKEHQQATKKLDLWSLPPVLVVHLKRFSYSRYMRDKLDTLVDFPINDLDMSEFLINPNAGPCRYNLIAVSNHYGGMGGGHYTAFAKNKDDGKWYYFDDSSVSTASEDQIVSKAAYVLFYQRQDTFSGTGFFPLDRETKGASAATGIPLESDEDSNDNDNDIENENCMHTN

[2] = biological target: T2, USP15-D1D2 (Homo sapiens, UniProt Q9Y4E8, DEL469-785); experiment: X-ray crystal structure of complex, […] Å; assay type: binding; conditions: co-crystal, 0.1 M Na-Hepes pH 7.0, 14% MPD, 20 °C; S1' site near BL2 loop; ligand density in one of two copies
T2 construct: two copies in the asymmetric unit

SMILES: O=C1c2c(O)ccc(O)c2C(=O)c2c(NCCNCCO)ccc(NCCNCCO)c21 [mitoxantrone, 1,4-dihydroxy-5,8-bis[2-(2-hydroxyethylamino)ethylamino]anthracene-9,10-dione]
- IC50 [1]: 33 ± 11 µM
- X-ray crystal structure of complex, 2.09 Å [2]: This USP15–mitoxantrone complex structure revealed predominantly hydrophobic interactions between mitoxantrone and USP15 residues
